Data set [1] can be described thus: water solubility at 15° C. It counts as physicochemical. The following applies: for solubility: water.
Data set [2] has as its system human lymphoblastoid cells (E.B. -3 cells, Burkitt lymphoma). Description: inhibiting action on the growth of human lymphoblastoid cells (E.B.-3, Burkitt lymphoma) in suspension culture, cell count. The note with it: 100 μg per ml medium, added on the fourth day of cultivation; R.P.M.I. 1640 + 30% fetal calf serum, 37° C; vs non-added culture. It counts as cell-based. The method, then: Human lymphoblastoid cells (E.B. -3 cells, Burkitt lymphoma) were grown in suspension culture and maintained in 2 ml R.P.M.I. 1640 medium (manufactured by Flow Laboratories Inc., U.S.A.) supplemented with 30% fetal calf serum, placed in Petri's dish, diameter 20 mm at a temperature of 37° C.
The numbers of human lymphoblastoid cells were counted according to the method used for counting the numbers of leucocyte with Burke's blood count platelet.

Setting [3] is: 15° C, parts or percentages by weight.

This is an account of results in patent US4067142A, “Echinatin glycosides and their preparation” (Kabushiki Kaisha Hayashibara Seibutsu Kagaku Kenkyujo, priority 1975, dated 1978).

Converted amounts (≈) assume the structure as drawn.

Usually solubility stands for the concentration that dissolves in the medium under given conditions. Low values mean little dissolved substance, high ones much dissolved substance.

In the case of `COc1cc(O)ccc1/C=C/C(=O)c1ccc(O)cc1` [echinatin], the “water solubility, in words” value in data set [1] (temperature not stated) is reported as “extremely low water solubility”. The molecule further returned a solubility in data set [1] (setting [3]) of less than 1 µg/mL.

In turn, `COc1cc(O[C@@H]2O[C@H](CO)[C@@H](O)[C@H](O)[C@H]2O)ccc1/C=C/C(=O)c1ccc(O[C@@H]2O[C@H](CO)[C@@H](O)[C@H](O)[C@H]2O)cc1` [echinatin-4,4'-diglucoside] yielded a solubility in data set [1] (setting [3]) of approximately 5000 µg/mL (≈ 8410 µM).

The molecule `COc1cc(O[C@@H]2O[C@H](CO)[C@@H](O)[C@H](O)[C@H]2O)ccc1/C=C/C(=O)c1ccc(O)cc1` [echinatin-4-glucoside] yielded a solubility in data set [1] (setting [3]) of approximately 1000 µg/mL (≈ 2310 µM).

echinatin-4'-glucoside: in data set [2], the “inhibiting action on the growth of human lymphoblastoid cells” value is on record as “possesses an inhibiting action on the growth of human lymphoblastoid cells”. Besides, the water solubility entry in data set [1] (setting [3]) is on record as “approximately 1%”.
